From patent US8835644B2, “Broad spectrum benzothiophene-nitrothiazolide and other antimicrobials” (University of Virginia Patent Foundation, priority 2009, dated 2014)
Values after ≈ are worked out from the molar mass of the structure shown. Where two headings read alike, the source gives them in different places.

Columns and labels:
C. difficile = assay: Disk diffusion (Kirby Bower), C. difficile; assay type: cell-based, Clostridium difficile; conditions: for Disk Diff (%) C. difficile: Nitazoxanide = 100; for Disk Diffusion (%) C. difficile: zone of inhibited growth as relative ratio to the zone for NTZ
Description: (§1) A standard broth dilution protocol was used in 96 well microplates containing a standard dilution of the microorganism to be tested in 100 microliters of the appropriate medium. Appropriate medium: E. coli, LB medium; Staphylococcus strains, Trypticase Soy; and for H. pylori and C. jejuni, Brain Heart Infusion. The compounds to be tested were set at 32 μg/ml in 200 microliters in well one and then serially diluted to provide a range from 32 to 0.06. The wells were scored visually at 24 h. The well where there was no growth was recorded as the MIC. Clostridium difficile was tested by agar diffusion and disk diffusion (Kirby Bower) methods under anaerobic conditions on Wilkins Chalgrin agar. In these assays, zone of inhibited growth was measured and compared by relative ratio to the zone recorded for NTZ.
(§2) Representative compounds of the invention were tested in a series of assays against a series of organisms as described above. […] The organisms tested include, C. difficile, H. pylori, C. jejuni, MRSA, S. epidermidis, and E. coli. S. epidermidis and E. coli were tested in the plank and biofilm assay. A disk diffusion assay was also used for C. difficile. Direct PFOR enzyme assays were also performed. All analogues and derivatives were not tested on every organism in every type of assay (the “-” in each table means that it was not tested).

C. jejuni = assay: MIC testing by broth dilution, C. jejuni; assay type: cell-based, Campylobacter jejuni
Description: as §1, §2

S. epidermidis = assay: MIC testing by broth dilution, S. epidermidis plank; assay type: cell-based, Staphylococcus epidermidis
Description: as §1, §2

MRSA = assay: MIC testing by broth dilution, MRSA; assay type: cell-based, Staphylococcus aureus
Description: as §1, §2

H. pylori = assay: MIC testing by broth dilution, H. pylori; assay type: cell-based, Helicobacter pylori
Description: as §1, §2

E. coli = assay: MIC testing by broth dilution, E. coli plank; assay type: cell-based, Escherichia coli
Description: as §1, §2

E. coli biofilm = E. coli biofilm assay (activity tables); assay type: cell-based, Escherichia coli; conditions: biofilm; read-out: MIC (μM) E. coli Biofilm
Description: A quantitative biofilm assay was used to determine the effect of NTZ on biofilm formation (41). Strain 042 was grown overnight at 37° C. with shaking and inoculated 1:100 in 200 μl culture medium in Costar 96-well, flat-bottom, polystyrene microtiter plates containing appropriate concentrations of NTZ. Plates were incubated statically at 37° C. in a humidified incubator. At 24 h, bacterial growth was measured by either transferring […] aliquots to another microtiter plate to determine turbidity or by diluting 100 μl aliquots 1:100 in 9.9 ml PBS for quantitative plate counts on LB medium. Bacterial counts in triplicate are reported as cfu/ml. Biofilm was visualized following staining with 0.5% crystal violet (41) and the absorbance was read at 570 nm using a microplate reader (Molecular Dynamics). All experiments were in triplicate and reported as mean and standard deviation.
as §1, §2

[1] = broth dilution, Brain Heart Infusion, 24 h, read-out: MIC (μM) C. jejuni
[2] = broth dilution, Trypticase Soy, 24 h, read-out: MIC (μM) S. epidermidis Plank
[3] = broth dilution, Trypticase Soy, 24 h, read-out: MIC (μM) MRSA
[4] = broth dilution, Brain Heart Infusion, 24 h, read-out: MIC (μM) H. pylori
[5] = broth dilution, LB medium, 24 h, read-out: MIC (μM) E. coli Plank
[6] = Campylobacter jejuni, 24 h, read-out: MIC (μM) C. jejuni
[7] = Staphylococcus epidermidis, 24 h, read-out: MIC (μM) S. epidermidis Plank
[8] = Staphylococcus aureus, MRSA, 24 h, read-out: MIC (μM) MRSA
[9] = Helicobacter pylori, 24 h, read-out: MIC (μM) H. pylori
[10] = Escherichia coli, 24 h, read-out: MIC (μM) E. coli Plank
[11] = Campylobacter jejuni, broth dilution, Brain Heart Infusion, 24 h, read-out: MIC (μM) C. jejuni
[12] = Staphylococcus epidermidis, broth dilution, Trypticase Soy, 24 h, read-out: MIC (μM) S. epidermidis Plank
[13] = Staphylococcus aureus, MRSA, broth dilution, Trypticase Soy, 24 h, read-out: MIC (μM) MRSA
[14] = Helicobacter pylori, broth dilution, Brain Heart Infusion, 24 h, read-out: MIC (μM) H. pylori
[15] = Escherichia coli, broth dilution, LB medium, 24 h, read-out: MIC (μM) E. coli Plank
[16] = Thiophene analogues table, read-out: MIC C. jejuni
[17] = planktonic, Thiophene analogues table, read-out: MIC S. epidermidis Plank
[18] = Thiophene analogues table, read-out: MIC MRSA
[19] = Thiophene analogues table, read-out: MIC H. pylori
[20] = planktonic, Thiophene analogues table, read-out: MIC E. coli Plank

O=C(Nc1ncc([N+](=O)[O-])s1)c1cc2cc([N+](=O)[O-])ccc2o1 [VPC16a1019]
Disk Diff (%) C. difficile (C. difficile; Furan analogues table): 77%
MIC (C. jejuni; Furan analogues table, read-out: MIC C. jejuni): 4.5 µM (≈ 1.5 µg/mL)
MIC (S. epidermidis; planktonic, Furan analogues table, read-out: MIC S. epidermidis Plank): 23.9 µM (≈ 7.99 µg/mL)
MIC (MRSA; Furan analogues table, read-out: MIC MRSA): 47.9 µM (≈ 16 µg/mL)
MIC (H. pylori; Furan analogues table, read-out: MIC H. pylori): 4.5 µM (≈ 1.5 µg/mL)
MIC (E. coli; planktonic, Furan analogues table, read-out: MIC E. coli Plank): 95.7 µM (≈ 32 µg/mL)

O=C(Nc1ncc([N+](=O)[O-])s1)c1cccc(OC(F)(F)F)c1 [VPC16a1041]
Disk Diffusion (%) C. difficile (C. difficile): 90%
MIC (C. jejuni; [1]): 9.0 µM (≈ 3 µg/mL)
MIC (S. epidermidis; [2]): 12.0 µM (≈ 4 µg/mL)
MIC (MRSA; [3]): 6.0 µM (≈ 2 µg/mL)
MIC (H. pylori; [4]): 1.1 µM (≈ 0.367 µg/mL)
MIC (E. coli; [5]): 96.0 µM (≈ 32 µg/mL)

O=C(Nc1ncc([N+](=O)[O-])s1)c1ccc(C(F)(F)F)cc1[N+](=O)[O-] [VPC16b1016]
MIC (E. coli biofilm): 88.3 µM (≈ 32 µg/mL)
MIC (C. jejuni; [1]): 88.3 µM (≈ 32 µg/mL)
MIC (S. epidermidis; [2]): 88.3 µM (≈ 32 µg/mL)
MIC (MRSA; [3]): 88.3 µM (≈ 32 µg/mL)
MIC (H. pylori; [4]): 8.3 µM (≈ 3.01 µg/mL)
MIC (E. coli; [5]): 88.3 µM (≈ 32 µg/mL)

O=C(Nc1ncc([N+](=O)[O-])s1)c1ccc(F)c([N+](=O)[O-])c1 [VPC16b1017]
MIC (E. coli biofilm): 102.5 µM (≈ 32 µg/mL)
MIC (C. jejuni; [1]): 51.2 µM (≈ 16 µg/mL)
MIC (S. epidermidis; [2]): 51.2 µM (≈ 16 µg/mL)
MIC (MRSA; [3]): 76.9 µM (≈ 24 µg/mL)
MIC (H. pylori; [4]): 1.6 µM (≈ 0.5 µg/mL)
MIC (E. coli; [5]): 102.5 µM (≈ 32 µg/mL)

O=C(Nc1ncc([N+](=O)[O-])s1)c1cc2ccccc2[nH]1 [VPC16b1031, N-(5-Nitrothiazol-2-yl)-1H-indole-2-carboxamide]
Disk Diffusion (%) C. difficile (C. difficile): 75%
MIC (C. jejuni; [6]): 13.9 µM (≈ 4.01 µg/mL)
MIC (S. epidermidis; [7]): 13.9 µM (≈ 4.01 µg/mL)
MIC (MRSA; [8]): 27.8 µM (≈ 8.01 µg/mL)
MIC (H. pylori; [9]): 6.9 µM (≈ 1.99 µg/mL)
MIC (E. coli; [10]): 111 µM (≈ 32 µg/mL)

NCCOc1ccccc1C(=O)Nc1ncc([N+](=O)[O-])s1.O=C(O)C(F)(F)F [VPC161219TFA]
Disk Diffusion (%) C. difficile (C. difficile): 81%
MIC (C. jejuni; [1]): 14.2 µM
MIC (S. epidermidis; [2]): 75.8 µM
MIC (MRSA; [3]): 75.8 µM
MIC (H. pylori; [4]): 1.88 µM
MIC (E. coli; [5]): 75.8 µM

O=C(Nc1ccccc1)c1ncc([N+](=O)[O-])s1 [VPC161232]
Disk Diffusion (%) C. difficile (C. difficile): 0%
MIC (C. jejuni; [11]): 8 µM (≈ 1.99 µg/mL)
MIC (S. epidermidis; [12]): 16 µM (≈ 3.99 µg/mL)
MIC (MRSA; [13]): 32.1 µM (≈ 8 µg/mL)
MIC (H. pylori; [14]): 6 µM (≈ 1.5 µg/mL)
MIC (E. coli; [15]): 128 µM (≈ 32 µg/mL)

COc1cc2cc(C(=O)Nc3ncc([N+](=O)[O-])s3)sc2cc1F [VPC161259]
MIC (C. jejuni; [16]): 11.3 µM (≈ 3.99 µg/mL)
MIC (S. epidermidis; [17]): 11.3 µM (≈ 3.99 µg/mL)
MIC (MRSA; [18]): 11.3 µM (≈ 3.99 µg/mL)
MIC (H. pylori; [19]): 2.1 µM (≈ 0.742 µg/mL)
MIC (E. coli; [20]): 90.6 µM (≈ 32 µg/mL)

CC(C)(C)OC(=O)COc1ccccc1C(=O)Nc1ncc([N+](=O)[O-])s1 [VPC162035, tert-butyl 2-(2-(5-nitrothiazol-2-ylcarbamoyl)phenoxy)acetate]
Disk Diffusion (%) C. difficile (C. difficile): 0%
MIC (C. jejuni; [11]): 84.4 µM (≈ 32 µg/mL)
MIC (S. epidermidis; [12]): 84.3 µM (≈ 32 µg/mL)
MIC (MRSA; [13]): 84.3 µM (≈ 32 µg/mL)
MIC (H. pylori; [14]): 1 µM (≈ 0.379 µg/mL)
MIC (E. coli; [15]): 84.3 µM (≈ 32 µg/mL)

CC(C)(C)OC(=O)COc1ccc(C(=O)Nc2ncc([N+](=O)[O-])s2)cc1 [VPC162036]
MIC (C. jejuni; [1]): 84.4 µM (≈ 32 µg/mL)
MIC (S. epidermidis; [2]): 84.3 µM (≈ 32 µg/mL)
MIC (MRSA; [3]): 84.3 µM (≈ 32 µg/mL)
MIC (H. pylori; [4]): 0.5 µM (≈ 0.19 µg/mL)
MIC (E. coli; [5]): 84.3 µM (≈ 32 µg/mL)

O=C(Nc1ncc([N+](=O)[O-])s1)c1cc2ccc(F)cc2s1 [VPC162037]
Disk Diff (%) C. difficile (C. difficile; Thiophene analogues table): 70%
MIC (C. jejuni; [16]): 6.2 µM (≈ 2 µg/mL)
MIC (S. epidermidis; [17]): 49.5 µM (≈ 16 µg/mL)
MIC (MRSA; [18]): 61.9 µM (≈ 20 µg/mL)
MIC (H. pylori; [19]): 3.1 µM (≈ 1 µg/mL)
MIC (E. coli; [20]): 99.0 µM (≈ 32 µg/mL)

O=C(O)COc1ccccc1C(=O)Nc1ncc([N+](=O)[O-])s1 [VPC162042, 2-(2-(5-nitrothiazol-2-ylcarbamoyl)phenoxy)acetic acid]
MIC (C. jejuni; [6]): 99 µM (≈ 32 µg/mL)
MIC (S. epidermidis; [7]): 99 µM (≈ 32 µg/mL)
MIC (MRSA; [8]): 99 µM (≈ 32 µg/mL)
MIC (H. pylori; [9]): 49.5 µM (≈ 16 µg/mL)
MIC (E. coli; [10]): 99 µM (≈ 32 µg/mL)

O=C(O)COc1ccc(C(=O)Nc2ncc([N+](=O)[O-])s2)cc1 [VPC162043]
MIC (C. jejuni; [1]): 99.0 µM (≈ 32 µg/mL)
MIC (S. epidermidis; [2]): 99.0 µM (≈ 32 µg/mL)
MIC (MRSA; [3]): 99.0 µM (≈ 32 µg/mL)
MIC (H. pylori; [4]): 99.0 µM (≈ 32 µg/mL)
MIC (E. coli; [5]): 99.0 µM (≈ 32 µg/mL)
